Where two headings read alike, the source gives them in different places.
Experiments:
Format in all cases: biochemical
[1] = target: CDK2/CCNE1 (Homo sapiens, UniProt P24941); assay: CDK2 homogeneous time-resolved fluorescence (HTRF) kinase assay; settings: CDK2/CCNE
In short: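 Compounds were titrated 11-point, half-log from typically 10 μM against 3 nM CDK2/cyclin E1 at 1 mM ATP, with a 20 min enzyme preincubation. Phosphorylation of 50 nM ULight-4E-BP1 peptide over 60 min at 23 °C was detected by europium anti-phospho antibody TR-FRET.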

[2] = target: CDK1/CCNB1 (Homo sapiens, UniProt P06493); assay: CDK1 homogeneous time-resolved fluorescence (HTRF) kinase assay; settings: CDK1/CCNB
Chain of CDK1/CCNB1 (P06493 whole entry): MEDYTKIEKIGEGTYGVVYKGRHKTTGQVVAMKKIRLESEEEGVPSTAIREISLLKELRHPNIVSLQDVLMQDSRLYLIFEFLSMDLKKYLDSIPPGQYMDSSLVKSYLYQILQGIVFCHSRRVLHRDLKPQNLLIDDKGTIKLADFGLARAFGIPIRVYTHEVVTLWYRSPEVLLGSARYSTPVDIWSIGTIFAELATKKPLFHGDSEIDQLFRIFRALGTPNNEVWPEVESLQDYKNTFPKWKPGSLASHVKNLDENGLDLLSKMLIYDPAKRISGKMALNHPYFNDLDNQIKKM
Chain of CDK1/CCNB1 (P14635 whole entry partner): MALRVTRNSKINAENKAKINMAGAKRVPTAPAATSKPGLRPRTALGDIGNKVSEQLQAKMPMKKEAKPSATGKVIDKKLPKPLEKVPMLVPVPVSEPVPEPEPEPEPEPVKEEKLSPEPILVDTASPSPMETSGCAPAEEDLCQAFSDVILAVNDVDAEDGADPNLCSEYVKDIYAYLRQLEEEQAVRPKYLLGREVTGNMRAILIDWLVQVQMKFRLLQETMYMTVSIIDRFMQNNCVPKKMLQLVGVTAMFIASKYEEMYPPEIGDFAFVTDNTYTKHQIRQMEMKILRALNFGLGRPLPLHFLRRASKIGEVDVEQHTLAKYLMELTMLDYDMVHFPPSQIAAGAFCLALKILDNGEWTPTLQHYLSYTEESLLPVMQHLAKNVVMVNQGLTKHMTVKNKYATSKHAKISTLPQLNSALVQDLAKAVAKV
In short: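 Compounds, titrated 11 points in half-log steps typically from 10 μM, were incubated with enzyme for 20 min before ATP (1 mM) and ULight-labelled eIF4E-binding protein 1 peptide (50 nM) started a 60-min reaction at 23 °C. Phosphopeptide was detected by europium-antibody TR-FRET and IC50 values were derived.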

[3] = target: CDK4/CCND3 (Homo sapiens, UniProt P11802); assay: CDK4 homogeneous time-resolved fluorescence (HTRF) kinase assay; settings: CDK4/CCND
Chain of CDK4/CCND3 (P11802 whole entry): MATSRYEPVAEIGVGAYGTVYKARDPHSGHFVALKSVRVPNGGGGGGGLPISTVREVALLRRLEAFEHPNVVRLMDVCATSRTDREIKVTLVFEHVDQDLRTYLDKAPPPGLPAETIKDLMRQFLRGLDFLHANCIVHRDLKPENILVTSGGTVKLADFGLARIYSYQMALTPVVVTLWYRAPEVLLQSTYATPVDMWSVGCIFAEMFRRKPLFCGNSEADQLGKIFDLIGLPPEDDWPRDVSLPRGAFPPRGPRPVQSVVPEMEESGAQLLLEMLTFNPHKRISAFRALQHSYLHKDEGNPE
Chain of CDK4/CCND3 (P30281 whole entry partner): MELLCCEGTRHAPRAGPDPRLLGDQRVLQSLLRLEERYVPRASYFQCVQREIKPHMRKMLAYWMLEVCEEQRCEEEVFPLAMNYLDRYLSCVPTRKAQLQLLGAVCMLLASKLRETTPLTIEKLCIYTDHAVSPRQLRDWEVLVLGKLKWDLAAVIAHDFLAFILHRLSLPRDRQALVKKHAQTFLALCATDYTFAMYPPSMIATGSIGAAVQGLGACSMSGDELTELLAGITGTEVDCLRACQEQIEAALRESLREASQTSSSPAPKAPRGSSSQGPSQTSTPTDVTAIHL
In short: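 Inhibition of CDK4/CCND3 (1.5 nM) was measured at high ATP (1 mM) using 50 nM ULight-labelled 4E-BP1 Thr37/46 peptide; detection used 2 nM europium anti-phospho antibody after EDTA quench. IC50 values came from 11-point half-log titrations typically starting at 10 μM.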

[4] = target: CDK6/CCND1 (Homo sapiens, UniProt Q00534); assay: CDK6 homogeneous time-resolved fluorescence (HTRF) kinase assay; settings: CDK6/CCND, 1 mM ATP
Chain of CDK6/CCND1 (Q00534 whole entry): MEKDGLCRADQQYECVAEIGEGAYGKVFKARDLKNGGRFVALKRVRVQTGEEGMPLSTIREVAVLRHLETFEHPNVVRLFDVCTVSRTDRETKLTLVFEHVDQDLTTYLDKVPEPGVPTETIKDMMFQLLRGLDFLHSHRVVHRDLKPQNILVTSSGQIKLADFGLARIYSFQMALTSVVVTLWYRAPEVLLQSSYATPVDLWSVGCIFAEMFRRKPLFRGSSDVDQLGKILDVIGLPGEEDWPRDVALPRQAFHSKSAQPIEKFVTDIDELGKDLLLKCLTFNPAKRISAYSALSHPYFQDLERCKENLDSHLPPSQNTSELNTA
Chain of CDK6/CCND1 (P24385 whole entry partner): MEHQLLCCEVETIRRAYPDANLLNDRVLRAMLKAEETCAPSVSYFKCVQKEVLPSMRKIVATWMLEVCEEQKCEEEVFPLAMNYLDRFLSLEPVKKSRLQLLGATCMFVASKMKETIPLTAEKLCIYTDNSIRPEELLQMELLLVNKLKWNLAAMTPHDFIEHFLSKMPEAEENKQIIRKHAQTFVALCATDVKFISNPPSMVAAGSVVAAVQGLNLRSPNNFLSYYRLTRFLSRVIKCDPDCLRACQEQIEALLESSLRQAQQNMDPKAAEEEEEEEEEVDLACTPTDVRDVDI
In short: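 1 nM enzyme, 1 mM ATP, 50 nM ULight-4E-BP1 (Thr37/46) peptide, 1% DMSO; 20 min compound preincubation, 60 min reaction, 23 °C. EDTA stop, 2 nM Eu-anti-phospho-4E-BP1 antibody 60 min. TR-FRET 665 nm (or 665/615 ratio); IC50 from 11-point half-log titration, top 10 μM.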

[5] = <25 nM, read-out: CDK2/CCNE IC50, <25 nM
[6] = 25-250 nM, read-out: CDK1/CCNB IC50, 25-250 nM
[7] = 25-250 nM, read-out: CDK4/CCND IC50, 25-250 nM
[8] = 25-250 nM, read-out: CDK6/CCND IC50, 25-250 nM
[9] = >250 nM, read-out: CDK1/CCNB IC50 >250 nM
[10] = 25-250 nM, read-out: CDK2/CCNE IC50, 25-250 nM
[11] = >250 nM, read-out: CDK4/CCND IC50, >250 nM
[12] = >250 nM, read-out: CDK6/CCND IC50, >250 nM

IC50 [1, 5] [nM] | IC50 [2, 6] [nM] | IC50 [3, 7] [nM] | IC50 [4, 8] [nM] | IC50 [2, 9] [nM] | IC50 [1, 10] [nM] | IC50 [3, 11] [nM] | IC50 [4, 12] [nM] | IC50 ([1]; >250 nM, read-out: CDK2/CCNE IC50, >250 nM) [nM] | Compound
< 25 | 25 to 250 | 25 to 250 | 25 to 250 |  |  |  |  |  | Cc1c(-c2nccc3cnc(Nc4ccc(S(=O)(=O)NC5CCN(C)CC5)cc4)cc23)ccc2c1cnn2CC(C)(C)O [Ex 763, 4-((5-(1-(2-hydroxy-2-methylpropyl)-4-methyl-1H-indazol-5-yl)-2,6-naphthyridin-3-yl)amino)-N-(1-methylpiperidin-4-yl)benzenesulfonamide]
< 25 |  | 25 to 250 | 25 to 250 | > 250 |  |  |  |  | Cc1c(-c2nccc3cnc(Nc4ccc(S(=O)(=O)NC5CCNCC5)cc4)cc23)ccc2c1cnn2CC(C)(C)O [Ex 764, 4-((5-(1-(2-hydroxy-2-methylpropyl)-4-methyl-1H-indazol-5-yl)-2,6-naphthyridin-3-yl)amino)-N-(piperidin-4-yl)benzenesulfonamide]
 |  |  |  | > 250 | 25 to 250 | > 250 | > 250 |  | COc1nc(S(C)(=O)=O)ccc1Nc1cc2c(-c3ccc4c(cnn4CC(C)(C)O)c3C)nccc2cn1 [Ex 766, 1-(5-(7-((2-methoxy-6-(methylsulfonyl)pyridin-3-yl)amino)-2,6-naphthyridin-1-yl)-4-methyl-1H-indazol-1-yl)-2-methylpropan-2-ol]
< 25 |  |  |  | > 250 |  | > 250 | > 250 |  | Cc1c(-c2nccc3cnc(Nc4ccc(NS(=O)(=O)c5ccc(N6CCNCC6)cc5)cc4)cc23)ccc2c1cnn2CC(C)(C)O [Ex 767, N-(4-((5-(1-(2-hydroxy-2-methylpropyl)-4-methyl-1H-indazol-5-yl)-2,6-naphthyridin-3-yl)amino)phenyl)-4-(piperazin-1-yl)benzenesulfonamide]
< 25 | 25 to 250 | 25 to 250 | 25 to 250 |  |  |  |  |  | Cc1c(-c2nccc3cnc(Nc4ccc(NS(=O)(=O)c5ccccn5)cc4)cc23)ccc2c1cnn2CC(C)(C)O [Ex 768, N-(4-((5-(1-(2-hydroxy-2-methylpropyl)-4-methyl-1H-indazol-5-yl)-2,6-naphthyridin-3-yl)amino)phenyl)pyridine-2-sulfonamide]
< 25 |  |  |  | > 250 |  | > 250 | > 250 |  | Cc1c(-c2nccc3cnc(Nc4ccc(S(=O)(=O)Nc5nccc(N6CCOCC6)n5)cc4)cc23)ccc2c1cnn2CC(O)(C(F)(F)F)C(F)(F)F [Ex 769, 4-((5-(4-methyl-1-(3,3,3-trifluoro-2-hydroxy-2-(trifluoromethyl)propyl)-1H-indazol-5-yl)-2,6-naphthyridin-3-yl)amino)-N-(4-morpholinopyrimidin-2-yl)benzenesulfonamide]
< 25 |  | 25 to 250 | 25 to 250 | > 250 |  |  |  |  | Cc1c(-c2nccc3cnc(Nc4ccc(S(=O)(=O)Nc5cc(N6CCOCC6)ccn5)cc4)cc23)ccc2c1cnn2CC(C)(C)O [Ex 772, 4-((5-(1-(2-hydroxy-2-methylpropyl)-4-methyl-1H-indazol-5-yl)-2,6-naphthyridin-3-yl)amino)-N-(4-morpholinopyridin-2-yl)benzenesulfonamide]
< 25 |  | 25 to 250 | 25 to 250 | > 250 |  |  |  |  | Cc1c(-c2nccc3cnc(Nc4ccc(S(=O)(=O)Nc5ccc(N6CCOCC6)cn5)cc4)cc23)ccc2c1cnn2CC(C)(C)O [Ex 773, 4-((5-(1-(2-hydroxy-2-methylpropyl)-4-methyl-1H-indazol-5-yl)-2,6-naphthyridin-3-yl)amino)-N-(5-morpholinopyridin-2-yl)benzenesulfonamide]
< 25 |  | 25 to 250 | 25 to 250 | > 250 |  |  |  |  | Cc1c(-c2nccc3cnc(Nc4ccc(S(=O)(=O)Nc5cc(C(C)(C)O)ccn5)cc4)cc23)ccc2c1cnn2CC(C)(C)O [Ex 774, 4-((5-(1-(2-hydroxy-2-methylpropyl)-4-methyl-1H-indazol-5-yl)-2,6-naphthyridin-3-yl)amino)-N-(4-(2-hydroxypropan-2-yl)pyridin-2-yl)benzenesulfonamide]
< 25 |  |  |  | > 250 |  | > 250 | > 250 |  | Cc1c(-c2nccc3cnc(Nc4ccc(S(=O)(=O)Nc5cc(C(F)(F)F)cc(C(F)(F)F)n5)cc4)cc23)ccc2c1cnn2CC(C)(C)O [Ex 775, N-(4,6-bis(trifluoromethyl)pyridin-2-yl)-4-((5-(1-(2-hydroxy-2-methylpropyl)-4-methyl-1H-indazol-5-yl)-2,6-naphthyridin-3-yl)amino)benzenesulfonamide]
< 25 |  |  |  | > 250 |  | > 250 | > 250 |  | Cc1c(-c2nccc3cnc(Nc4ccc(NS(=O)(=O)c5ccc(Cl)cn5)cc4)cc23)ccc2c1cnn2CC(C)(C)O [Ex 777, 5-chloro-N-(4-((5-(1-(2-hydroxy-2-methylpropyl)-4-methyl-1H-indazol-5-yl)-2,6-naphthyridin-3-yl)amino)phenyl)pyridine-2-sulfonamide]
 |  |  |  | > 250 | 25 to 250 | > 250 | > 250 |  | Cc1c(-c2nccc3cnc(Nc4ccc(NS(=O)(=O)c5ccc(C(F)(F)F)nc5)cc4)cc23)ccc2c1cnn2CC(C)(C)O [Ex 778, N-(4-((5-(1-(2-hydroxy-2-methylpropyl)-4-methyl-1H-indazol-5-yl)-2,6-naphthyridin-3-yl)amino)phenyl)-6-(trifluoromethyl)pyridine-3-sulfonamide]
< 25 |  |  |  | > 250 |  | > 250 | > 250 |  | COc1ccc(S(=O)(=O)Nc2ccc(Nc3cc4c(-c5ccc6c(cnn6CC(C)(C)O)c5C)nccc4cn3)cc2)cn1 [Ex 779, N-(4-((5-(1-(2-hydroxy-2-methylpropyl)-4-methyl-1H-indazol-5-yl)-2,6-naphthyridin-3-yl)amino)phenyl)-6-methoxypyridine-3-sulfonamide]
 |  |  |  | > 250 | 25 to 250 | > 250 | > 250 |  | Cc1c(-c2nccc3cnc(Nc4ccc(NS(=O)(=O)c5ccc(N6CCOCC6)nc5)cc4)cc23)ccc2c1cnn2CC(C)(C)O [Ex 780, N-(4-((5-(1-(2-hydroxy-2-methylpropyl)-4-methyl-1H-indazol-5-yl)-2,6-naphthyridin-3-yl)amino)phenyl)-6-morpholinopyridine-3-sulfonamide]
< 25 |  | 25 to 250 | 25 to 250 | > 250 |  |  |  |  | Cc1c(-c2nccc3cnc(Nc4ccc(NS(=O)(=O)c5cnccn5)cc4)cc23)ccc2c1cnn2CC(C)(C)O [Ex 781, N-(4-((5-(1-(2-hydroxy-2-methylpropyl)-4-methyl-1H-indazol-5-yl)-2,6-naphthyridin-3-yl)amino)phenyl)pyrazine-2-sulfonamide]
 |  |  |  | > 250 |  | > 250 | > 250 | > 250 | Cc1nc(-c2ccc(S(=O)(=O)Nc3ccc(Nc4cc5c(-c6ccc7c(cnn7CC(C)(C)O)c6C)nccc5cn4)cc3)s2)cs1 [Ex 782, N-(4-((5-(1-(2-hydroxy-2-methylpropyl)-4-methyl-1H-indazol-5-yl)-2,6-naphthyridin-3-yl)amino)phenyl)-5-(2-methylthiazol-4-yl)thiophene-2-sulfonamide]
< 25 |  |  |  | > 250 |  | > 250 | > 250 |  | Cc1ncc(S(=O)(=O)Nc2ccc(Nc3cc4c(-c5ccc6c(cnn6CC(C)(C)O)c5C)nccc4cn3)cc2)s1 [Ex 783, N-(4-((5-(1-(2-hydroxy-2-methylpropyl)-4-methyl-1H-indazol-5-yl)-2,6-naphthyridin-3-yl)amino)phenyl)-2-methylthiazole-5-sulfonamide]
< 25 |  |  |  | > 250 |  | > 250 | > 250 |  | Cc1c(-c2nccc3cnc(Nc4ccc(NS(=O)(=O)c5ccc(N6CCN(C)CC6)cc5)cc4)cc23)ccc2c1cnn2CC(C)(C)O [Ex 785, N-(4-((5-(1-(2-hydroxy-2-methylpropyl)-4-methyl-1H-indazol-5-yl)-2,6-naphthyridin-3-yl)amino)phenyl)-4-(4-methylpiperazin-1-yl)benzenesulfonamide]

Source: patent US20260325533A1, “CDK INHIBITOR COMPOUNDS” (ALEKSIA THERAPEUTICS, INC., priority 2023, published 2026)
